Assay results as given in article PMC10742508, “The Structure and Nucleotide-Binding Characteristics of Regulated Cystathionine β-Synthase Domain-Containing Pyrophosphatase without One Catalytic Domain” (International Journal of Molecular Sciences, 2023).
pKd: −log10 of the molar value.

Experiments:
Type in all cases: binding
[1] = biological target: T1, dhPPase (full-size CBS-PPase) (Desulfitobacterium hafniense, UniProt B8FP42); assay: ThermoFluor, SYPRO Orange; conditions: 200 µM AMP, 2 mM MgCl2, 0.1 mM CoCl2, 150 mM KCl, pH 7.2; peak II = regulatory part
T1 construct: gene Dhaf_1515
T1 sequence (B8FP42 entry or part of it): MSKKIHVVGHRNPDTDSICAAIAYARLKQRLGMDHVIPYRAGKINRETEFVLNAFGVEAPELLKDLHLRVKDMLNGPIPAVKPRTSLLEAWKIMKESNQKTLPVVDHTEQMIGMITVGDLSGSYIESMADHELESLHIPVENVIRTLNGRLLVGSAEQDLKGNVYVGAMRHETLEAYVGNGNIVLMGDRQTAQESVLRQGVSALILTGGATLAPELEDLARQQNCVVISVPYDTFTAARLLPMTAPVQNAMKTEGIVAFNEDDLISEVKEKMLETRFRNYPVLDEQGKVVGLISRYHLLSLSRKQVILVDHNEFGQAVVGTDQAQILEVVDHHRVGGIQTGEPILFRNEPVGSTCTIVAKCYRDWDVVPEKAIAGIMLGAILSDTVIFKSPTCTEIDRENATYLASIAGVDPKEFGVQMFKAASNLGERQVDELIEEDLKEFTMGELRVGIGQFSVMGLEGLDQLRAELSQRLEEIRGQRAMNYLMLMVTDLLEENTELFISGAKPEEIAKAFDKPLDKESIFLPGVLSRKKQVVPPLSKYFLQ
From the text: ThermoFluor, SYPRO Orange on dhPPase (full-size CBS-PPase)

[2] = biological target: T2, CDC (separate regulatory part of dhPPase) (Desulfitobacterium hafniense, UniProt B8FP42); assay: ThermoFluor, SYPRO Orange; conditions: 2 mM MgCl2, 0.1 mM CoCl2, 150 mM KCl, pH 7.2
T2 construct: gene Dhaf_1515; regulatory insert only (CBS1-DRTGG-CBS2)
From the text: ThermoFluor, SYPRO Orange on CDC (separate regulatory part of dhPPase)

[3] = biological target: T3, ΔdhPPase (Desulfitobacterium hafniense, UniProt B8FP42); assay: ThermoFluor, SYPRO Orange; conditions: 200 µM AMP, 2 mM MgCl2, 0.1 mM CoCl2, 150 mM KCl, pH 7.2; peak II = regulatory part
T3 construct: gene Dhaf_1515
T3 sequence (B8FP42 1-423): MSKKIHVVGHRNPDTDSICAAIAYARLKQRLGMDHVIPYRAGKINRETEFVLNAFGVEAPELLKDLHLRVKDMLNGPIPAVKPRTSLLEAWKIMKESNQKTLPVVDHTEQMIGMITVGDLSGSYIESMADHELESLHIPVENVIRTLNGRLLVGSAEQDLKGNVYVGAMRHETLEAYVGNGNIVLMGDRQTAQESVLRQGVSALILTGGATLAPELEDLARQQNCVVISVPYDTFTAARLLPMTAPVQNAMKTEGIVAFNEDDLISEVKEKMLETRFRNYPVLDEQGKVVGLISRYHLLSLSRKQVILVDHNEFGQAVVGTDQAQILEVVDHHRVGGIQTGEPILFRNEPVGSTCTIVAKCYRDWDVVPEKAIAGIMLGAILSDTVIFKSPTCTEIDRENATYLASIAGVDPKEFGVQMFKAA
From the text: ThermoFluor, SYPRO Orange on ΔdhPPase

[4] = biological target: T4, ΔdhPPase (Desulfitobacterium hafniense, UniProt B8FP42, DEL425-544); assay: isothermal titration calorimetry, single-site model; conditions: read-out: KN
T4 construct: gene Dhaf_1515
T4 sequence (B8FP42 1-423): T3 sequence (B8FP42 1-423)
From the text: isothermal titration calorimetry, single-site model on ΔdhPPase

[5] = biological target: T1, dhPPase (full-size CBS-PPase); assay: as above; conditions: read-out: KN
From the text: isothermal titration calorimetry, single-site model on dhPPase (full-size CBS-PPase)

Compound | Tm, °C / dhPPase [1] | Tm, °C / CDC ([2]; 200 µM AMP) | Tm, °C / ΔdhPPase [3] | pKd [4] | Tm, °C / CDC ([2]; 20 µM Ap4A) | pKd [5]
Nc1ncnc2c1ncn2[C@@H]1O[C@H](COP(=O)(O)O)[C@@H](O)[C@H]1O [AMP] | 67.4 °C | 66.5 °C | 68.6 °C |  |  | 
Nc1ncnc2c1ncn2[C@@H]1O[C@H](COP(=O)(O)OP(=O)(O)OP(=O)(O)OP(=O)(O)OC[C@H]2O[C@@H](n3cnc4c(N)ncnc43)[C@H](O)[C@@H]2O)[C@@H](O)[C@H]1O [Ap4A] |  |  |  | > 8.00 | 61.5 °C | 7.00 to 8.00
